Measurements published in paper PMC7180948, “New Insights into 4-Anilinoquinazolines as Inhibitors of Cardiac Troponin I–Interacting Kinase (TNNi3K)” (Molecules, 2020).

Legend:
Test in all cases: biochemical
Set-up in all cases: KINOMEscan competition binding panel (Eurofins DiscoverX), single concentration, percent inhibition
Details in all cases: read-out: 15 at 1 µM % inhibition
[1] = target: BMPR1A (Homo sapiens, UniProt P36894)
Outline: (§1)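 A single 1 µM concentration of each compound is screened across upwards of 400 human kinases using the KINOMEscan format.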

[2] = target: CAMKK1 (Homo sapiens, UniProt Q8N5S9)
Outline: as §1

[3] = target: CAMKK2 (Homo sapiens, UniProt Q96RR4)
Chain of CAMKK2 (Q96RR4 whole entry): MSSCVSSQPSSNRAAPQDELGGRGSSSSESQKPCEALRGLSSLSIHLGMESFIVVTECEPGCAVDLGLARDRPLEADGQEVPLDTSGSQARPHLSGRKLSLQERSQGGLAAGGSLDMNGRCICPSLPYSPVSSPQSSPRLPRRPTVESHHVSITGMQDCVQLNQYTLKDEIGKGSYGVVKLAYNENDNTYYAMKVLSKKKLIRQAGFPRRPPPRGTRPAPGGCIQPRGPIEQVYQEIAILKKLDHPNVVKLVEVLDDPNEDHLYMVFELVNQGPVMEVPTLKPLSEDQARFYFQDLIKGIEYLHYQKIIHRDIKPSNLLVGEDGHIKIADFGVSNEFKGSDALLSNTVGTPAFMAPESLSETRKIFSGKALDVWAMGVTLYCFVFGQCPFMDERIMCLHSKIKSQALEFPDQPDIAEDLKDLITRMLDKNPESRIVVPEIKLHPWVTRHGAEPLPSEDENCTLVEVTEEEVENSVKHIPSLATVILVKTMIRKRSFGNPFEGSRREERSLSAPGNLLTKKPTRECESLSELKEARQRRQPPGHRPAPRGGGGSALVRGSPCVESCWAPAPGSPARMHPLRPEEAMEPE
Outline: as §1

[4] = target: T1, CDK11 (Homo sapiens, UniProt Q9BWU1)
T1 construct: gene CDK19
Outline: as §1

[5] = target: EGFR(L747-S752del, P753S) (Homo sapiens, UniProt P00533, DEL747-752/P753S)
Outline: as §1

[6] = target: EPHB2 (Homo sapiens, UniProt P29323)
Outline: as §1

[7] = target: FER (Homo sapiens, UniProt P16591)
Outline: as §1

[8] = target: FGR (Homo sapiens, UniProt P09769)
Outline: as §1

[9] = target: FLT3(D835H) (Homo sapiens, UniProt P36888, D835H)
Outline: as §1

[10] = target: GRK7 (Homo sapiens, UniProt Q8WTQ7)
Outline: as §1

[11] = target: LIMK1 (Homo sapiens, UniProt P53667)
Outline: as §1

[12] = target: LIMK2 (Homo sapiens, UniProt P53671)
Outline: as §1

[13] = target: MAP4K2 (Homo sapiens, UniProt Q12851)
Outline: as §1

[14] = target: MARK2 (Homo sapiens, UniProt Q7KZI7)
Outline: as §1

[15] = target: T2, MINK (Homo sapiens, UniProt Q8N4C8)
T2 construct: gene MINK1
Outline: as §1

[16] = target: T3, MLK2 (Homo sapiens, UniProt Q02779)
T3 construct: gene MAP3K10
Outline: as §1

[17] = target: T4, MRCKA (Homo sapiens, UniProt Q5VT25)
T4 construct: gene CDC42BPA
T4 sequence (Q5VT25 whole entry): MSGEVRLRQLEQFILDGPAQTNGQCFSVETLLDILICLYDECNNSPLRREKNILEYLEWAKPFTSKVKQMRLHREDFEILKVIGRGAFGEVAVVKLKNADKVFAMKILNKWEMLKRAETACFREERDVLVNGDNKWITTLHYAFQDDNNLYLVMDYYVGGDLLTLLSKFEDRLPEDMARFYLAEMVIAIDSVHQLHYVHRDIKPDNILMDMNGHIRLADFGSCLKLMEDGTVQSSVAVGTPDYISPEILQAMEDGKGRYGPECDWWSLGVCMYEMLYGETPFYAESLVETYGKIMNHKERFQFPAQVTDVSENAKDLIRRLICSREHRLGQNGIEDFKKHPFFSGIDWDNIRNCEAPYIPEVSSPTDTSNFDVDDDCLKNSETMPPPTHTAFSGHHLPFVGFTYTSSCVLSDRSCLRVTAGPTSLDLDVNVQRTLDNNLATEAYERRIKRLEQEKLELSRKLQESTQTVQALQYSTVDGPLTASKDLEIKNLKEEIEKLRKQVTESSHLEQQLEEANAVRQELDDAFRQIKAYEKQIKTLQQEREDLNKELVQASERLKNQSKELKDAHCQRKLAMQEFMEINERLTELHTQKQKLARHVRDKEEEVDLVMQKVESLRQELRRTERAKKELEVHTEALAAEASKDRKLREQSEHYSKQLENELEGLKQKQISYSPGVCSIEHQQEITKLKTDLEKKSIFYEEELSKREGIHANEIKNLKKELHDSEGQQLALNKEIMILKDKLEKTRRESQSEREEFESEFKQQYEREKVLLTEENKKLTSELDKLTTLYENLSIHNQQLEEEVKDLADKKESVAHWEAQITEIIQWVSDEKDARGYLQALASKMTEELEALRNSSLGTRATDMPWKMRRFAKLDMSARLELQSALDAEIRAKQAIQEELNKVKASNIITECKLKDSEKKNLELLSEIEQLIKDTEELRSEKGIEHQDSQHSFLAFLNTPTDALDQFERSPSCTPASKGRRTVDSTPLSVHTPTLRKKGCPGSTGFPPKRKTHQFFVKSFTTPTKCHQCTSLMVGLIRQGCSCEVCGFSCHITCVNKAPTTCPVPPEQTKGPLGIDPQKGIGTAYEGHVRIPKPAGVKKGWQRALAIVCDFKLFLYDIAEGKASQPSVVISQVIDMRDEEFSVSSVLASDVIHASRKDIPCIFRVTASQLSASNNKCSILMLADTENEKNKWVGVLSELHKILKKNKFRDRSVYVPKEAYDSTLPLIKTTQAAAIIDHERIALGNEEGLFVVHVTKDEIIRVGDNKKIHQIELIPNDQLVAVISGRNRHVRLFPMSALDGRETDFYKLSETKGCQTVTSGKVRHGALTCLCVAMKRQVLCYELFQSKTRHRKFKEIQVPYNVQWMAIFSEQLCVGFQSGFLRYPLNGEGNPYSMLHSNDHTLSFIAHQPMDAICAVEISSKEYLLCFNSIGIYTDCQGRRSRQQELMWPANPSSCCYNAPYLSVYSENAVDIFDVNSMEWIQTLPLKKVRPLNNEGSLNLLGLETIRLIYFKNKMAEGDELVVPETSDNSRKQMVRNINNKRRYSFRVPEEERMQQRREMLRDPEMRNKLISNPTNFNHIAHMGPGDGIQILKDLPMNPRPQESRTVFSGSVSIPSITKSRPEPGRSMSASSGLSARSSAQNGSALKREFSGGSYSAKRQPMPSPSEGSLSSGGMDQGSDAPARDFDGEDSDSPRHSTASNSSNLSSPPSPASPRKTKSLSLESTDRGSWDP
Outline: as §1

[18] = target: NEK1 (Homo sapiens, UniProt Q96PY6)
Outline: as §1

[19] = target: PAK1 (Homo sapiens, UniProt Q13153)
Outline: as §1

[20] = target: PAK2 (Homo sapiens, UniProt Q13177)
Chain of PAK2 (Q13177 whole entry): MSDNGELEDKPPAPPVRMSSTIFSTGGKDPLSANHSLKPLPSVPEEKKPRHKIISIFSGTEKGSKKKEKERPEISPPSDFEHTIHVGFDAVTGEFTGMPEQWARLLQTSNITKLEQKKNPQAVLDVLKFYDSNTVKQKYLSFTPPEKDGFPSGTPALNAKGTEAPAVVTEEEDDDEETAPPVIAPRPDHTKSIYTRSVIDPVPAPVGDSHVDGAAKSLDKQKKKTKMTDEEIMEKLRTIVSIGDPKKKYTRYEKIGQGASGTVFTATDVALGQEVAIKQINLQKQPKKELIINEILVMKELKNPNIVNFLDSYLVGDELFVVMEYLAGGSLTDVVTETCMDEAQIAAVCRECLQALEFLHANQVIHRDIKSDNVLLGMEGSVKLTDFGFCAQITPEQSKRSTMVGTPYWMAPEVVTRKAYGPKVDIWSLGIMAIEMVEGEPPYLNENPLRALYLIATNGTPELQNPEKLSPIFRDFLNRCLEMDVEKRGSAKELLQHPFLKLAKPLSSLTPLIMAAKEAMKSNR
Outline: as §1

[21] = target: PIM3 (Homo sapiens, UniProt Q86V86)
Outline: as §1

[22] = target: PLK1 (Homo sapiens, UniProt P53350)
Outline: as §1

[23] = target: RAF1 (Homo sapiens, UniProt P04049)
Chain of RAF1 (P04049 whole entry): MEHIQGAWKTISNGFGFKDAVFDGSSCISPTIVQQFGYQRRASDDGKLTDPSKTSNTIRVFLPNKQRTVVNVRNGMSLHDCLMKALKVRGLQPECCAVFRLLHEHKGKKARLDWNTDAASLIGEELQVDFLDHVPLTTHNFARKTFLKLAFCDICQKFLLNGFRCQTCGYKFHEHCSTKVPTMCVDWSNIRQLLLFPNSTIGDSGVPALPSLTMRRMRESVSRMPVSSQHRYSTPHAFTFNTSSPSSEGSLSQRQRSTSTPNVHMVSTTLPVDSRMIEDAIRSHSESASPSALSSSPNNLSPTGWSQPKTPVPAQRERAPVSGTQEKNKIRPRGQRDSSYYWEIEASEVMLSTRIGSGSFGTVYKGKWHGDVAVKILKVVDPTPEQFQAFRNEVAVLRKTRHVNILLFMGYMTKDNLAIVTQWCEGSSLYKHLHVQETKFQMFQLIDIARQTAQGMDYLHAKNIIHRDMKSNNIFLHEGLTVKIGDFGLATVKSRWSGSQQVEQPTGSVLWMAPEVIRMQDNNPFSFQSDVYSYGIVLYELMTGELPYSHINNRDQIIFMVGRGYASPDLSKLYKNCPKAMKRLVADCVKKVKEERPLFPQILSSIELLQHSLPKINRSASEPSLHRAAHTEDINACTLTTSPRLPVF
Outline: as §1

[24] = target: T5, TYK2(JH1domain-catalytic) (Homo sapiens, UniProt P29597)
T5 construct: JH1domain-catalytic
T5 sequence (P29597 whole entry): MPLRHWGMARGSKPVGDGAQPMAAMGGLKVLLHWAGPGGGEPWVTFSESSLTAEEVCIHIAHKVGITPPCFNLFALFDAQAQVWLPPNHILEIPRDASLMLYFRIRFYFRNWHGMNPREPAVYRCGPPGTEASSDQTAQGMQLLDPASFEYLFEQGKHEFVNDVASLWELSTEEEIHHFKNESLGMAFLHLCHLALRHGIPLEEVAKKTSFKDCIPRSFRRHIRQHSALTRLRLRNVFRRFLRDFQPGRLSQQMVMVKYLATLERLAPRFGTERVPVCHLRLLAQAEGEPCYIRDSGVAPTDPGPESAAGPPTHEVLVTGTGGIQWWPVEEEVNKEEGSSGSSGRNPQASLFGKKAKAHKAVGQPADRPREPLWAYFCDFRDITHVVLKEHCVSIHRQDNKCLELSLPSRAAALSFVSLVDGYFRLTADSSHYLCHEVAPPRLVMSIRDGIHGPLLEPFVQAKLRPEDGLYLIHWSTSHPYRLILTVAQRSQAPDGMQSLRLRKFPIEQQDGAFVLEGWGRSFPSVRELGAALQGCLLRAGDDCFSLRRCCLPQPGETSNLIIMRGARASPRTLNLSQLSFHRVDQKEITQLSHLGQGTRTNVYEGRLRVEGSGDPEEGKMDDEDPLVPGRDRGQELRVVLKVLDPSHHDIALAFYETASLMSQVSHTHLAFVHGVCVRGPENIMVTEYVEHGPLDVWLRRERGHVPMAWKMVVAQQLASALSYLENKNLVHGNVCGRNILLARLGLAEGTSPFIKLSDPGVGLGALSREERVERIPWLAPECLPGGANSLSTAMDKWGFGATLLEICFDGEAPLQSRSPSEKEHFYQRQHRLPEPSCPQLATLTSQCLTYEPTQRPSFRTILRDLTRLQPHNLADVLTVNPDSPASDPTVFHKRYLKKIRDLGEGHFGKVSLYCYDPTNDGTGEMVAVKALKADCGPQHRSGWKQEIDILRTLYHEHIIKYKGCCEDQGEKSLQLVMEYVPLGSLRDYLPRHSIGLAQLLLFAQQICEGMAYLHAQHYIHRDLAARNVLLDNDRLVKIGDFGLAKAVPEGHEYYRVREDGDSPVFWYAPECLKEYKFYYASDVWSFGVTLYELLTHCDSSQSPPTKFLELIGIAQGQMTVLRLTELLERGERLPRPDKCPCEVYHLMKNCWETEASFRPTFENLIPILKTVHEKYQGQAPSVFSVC
Outline: as §1

inhibition at 1 µM [1]: 0%
inhibition at 1 µM [2]: 2%
inhibition at 1 µM [3]: 3%
inhibition at 1 µM [4]: 13%
inhibition at 1 µM [5]: 11%
inhibition at 1 µM [6]: 2%
inhibition at 1 µM [7]: 0%
inhibition at 1 µM [8]: 0%
inhibition at 1 µM [9]: 10%
inhibition at 1 µM [10]: 13%
inhibition at 1 µM [11]: 0%
inhibition at 1 µM [12]: 9%
inhibition at 1 µM [13]: 3%
inhibition at 1 µM [14]: 0%
inhibition at 1 µM [15]: 22%
inhibition at 1 µM [16]: 0%
inhibition at 1 µM [17]: 0%
inhibition at 1 µM [18]: 1%
inhibition at 1 µM [19]: 1%
inhibition at 1 µM [20]: 14%
inhibition at 1 µM [21]: 3%
inhibition at 1 µM [22]: 0%
inhibition at 1 µM [23]: 0%
inhibition at 1 µM [24]: 0%
SMILES: CNS(=O)(=O)c1ccc(N(C)C)c(Nc2nc(C)nc3cc(OC)c(OC)cc23)c1 [compound 15, 3-((6,7-dimethoxy-2-methylquinazolin-4-yl)amino)-4-(dimethylamino)-N-methylbenzenesulfonamide]
